Measured values published in patent US20100168228A1, “NOVEL CHEMOTHERAPEUTIC AGENTS AGAINST INFLAMMATION AND CANCER” (RELIANCE LIFE SCIENCES PVT. LTD., priority 2006, published 2010).

Key:
COX-2 = COX-2 protein expression (ELISA); format: cell-based
Procedure: FIG. 6: Effect of CAMVE on TNF or LPS induced COX-2 expression. Cells were pretreated with indicated concentrations of CAMVE for 3 h and then stimulated with either TNF (0.1 nM) or SA-LPS (100 ng/ml) for 12 h. After harvesting the treated cells, the cellular lysates were checked for COX-2 protein expression by an enzyme immunoassay as described in the “Materials and Methods”.
Quantitative detection of Cox 2 protein expression by activated cells was done by an enzyme-linked immunosorbent sandwich assay using Zymed COX-2 ELISA kit. 1×10^7 cells were treated with different concentrations of CAMVE and stimulator and incubated at 37° C. for 12 hrs. […] The protein concentrations of the supernatants were measured by Bradford assay (Anal. Biochem. 72:248-254 (1976). 200 μg/100 μl of the protein was assayed per sample according to the kit protocol. Briefly, 100 μl of the sample and the standard were put in the pre antibody coated wells and incubated at 1 h at 37° C. After three washes 100 μl of the HRP conjugated antibody was added and incubated for 30 m is at 4° C. After washing, […] of the TMB substrate was added and incubated for 30 min at room temperature in dark. The reaction was stopped and the absorbance was read at 450 nm.

p65 = assay: Nuclear translocation of p65 NF-kB by immunocytochemistry, HeLa; format: cell-based, human; settings: 15 μM 3 h, 0.1 nM TNF
Procedure: FIG. 5: Effect of CAMVE on TNF or LPS induced nuclear translocation of p65. A. HeLa cells either untreated or pretreated with 15 μM CAMVE for 3 h at 37° C. were stimulated with 0.1 nM TNF and immunocytochemical analysis were performed as described in “Materials and Methods”. B. Jurkat (5×10^5 cells/ml) cells were pretreated with indicated concentrations of CAMVE for 3 h and then stimulated with 0.1 nM of TNF for 30 min or 100 ng/ml of SA-LPS (serum activated LPS) for 15 min. After these treatments, cells were washed twice with PBS and nuclei were isolated by incubating the cells with […] Pipes-Triton buffer for 30 min at 4° C. Nuclei were stained for p65 and analyzed using FACS. (i). Representative histogram overlay showing TNF or LPS stimulated (1), basal (2), CAMVE stimulated (3), p65 staining in the nucleus. (ii). Ordinates gives the Isotype-corrected MFI for various treatments.
Hela cells grown on cover slips were washed with 0.1M potassium phosphate buffer (pH 7.4) and fixed with 4% formaldehyde in 0.1M potassium phosphate buffer (pH 7.4) for 1 h at room temperature. The cells were permeabilized with 0.1% Triton X-100 in PBS for 1 h. […] After counterstaining for nuclei with DAPI or Hoechst for 5 mins slides were analyzed under a fluorescence microscope (Labophot-2. Nikon, Tokyo, Japan).

Jurkat cells = assay: PARP cleavage assay using flow cytometry, Jurkat; format: cell-based, human
Procedure: FIG. 8: CAMVE potentiates apoptosis induced by TNF or chemotherapeutic agents. A1. Jurkat cells were incubated at 37° C. with TNF, in the presence and absence of 10 μM of CAMVE for 72 h and the viable cells were assayed using MTT reagent. The results are shown as the mean±S.D. from triplicate culture. A2. Jurkat cells (1×10^6 cells/ml) were pretreated with CAMVE for 3 h as indicated and incubated with TNF for 24 hrs, and PARP cleavage was determined by FACS analysis as described in the “Materials and Methods”. […]
FIG. 15: Induction of apoptosis and PARP cleavage by compound 27. Jurkat cells were treated with 100 and 500 nM of the compound for indicated time period and PARP cleavage was determined using FACS analysis as described in the “Materials and Methods”. […]
Extent of PARP cleavage is determined using polyclonal antibody specifically recognizing the 85 kDa fragment of cleaved PARP (NSB 699 Novus Biologicals) and can be used as a marker for detecting apoptotic cells. […] Cells were washed twice with wash buffer (PBS+1% heat inactivated FBS) and analysed using FACS.
PARP Cleavage Assay using Flow Cytometry: Extent of PARP cleavage is determined using polyclonal antibody specifically recognizing the 85 kDa fragment of cleaved PARP (NSB 699 Novus Biologicals) and can be used as a marker for detecting apoptotic cells. […]

With COC(=O)c1ccc(OC(=O)/C=C/c2ccc(O)c(O)c2)c(OC)c1 [compound 1, Methyl 4-{[(2E)-3-(3,4-dihydroxyphenyl)prop-2-enoyl]oxy}-3-methoxybenzoate] the “COX-2 protein induction by compound alone” value (COX-2; CAMVE alone) was “did not show any induction of COX 2 protein”, the “TNF or LPS induced COX-2 protein expression” value (COX-2; pretreated 3 h, TNF 0.1 nM or SA-LPS 100 ng/ml 12 h) was “decreased with increasing concentration of CAMVE treatment” and the “TNF induced p65 nuclear translocation (immunofluorescence)” value (p65) was “did not show p65 signal”. The “TNF induced PARP cleavage (apoptosis)” value (Jurkat cells; pretreated 3 h, TNF 24 h) was “significant potentiation of PARP cleavage in a dose dependent manner”.
With COc1cc([C@@H]2Oc3c(OC)cc(/C=C/C(=O)O)cc3[C@H]2C(=O)O)ccc1O [compound 27, 5-[(E)-2-carboxyvinyl]-2β-(4-hydroxy-3-methoxyphenyl)-7-methoxy-2,3-dihydro-1-benzofuran-3α-carboxylic acid] the PARP cleavage (Jurkat cells; 100 nM and 500 nM, increasing with time) was “significant PARP cleavage was achieved at 100 nM and 500 nM”.
